The compounds below were run against T1, Y2 receptors (Homo sapiens, UniProt P49146) (assay: Radioligand binding assay ([125I]PYY, KAN-Ts cell membranes)). Conditions: Table 2, [125I]PYY 80 pM, average of results, read-out: IC50.
T1 construct: endogenous in cells; host or cells: KAN-Ts cells (membranes)
T1 sequence (P49146 1-381): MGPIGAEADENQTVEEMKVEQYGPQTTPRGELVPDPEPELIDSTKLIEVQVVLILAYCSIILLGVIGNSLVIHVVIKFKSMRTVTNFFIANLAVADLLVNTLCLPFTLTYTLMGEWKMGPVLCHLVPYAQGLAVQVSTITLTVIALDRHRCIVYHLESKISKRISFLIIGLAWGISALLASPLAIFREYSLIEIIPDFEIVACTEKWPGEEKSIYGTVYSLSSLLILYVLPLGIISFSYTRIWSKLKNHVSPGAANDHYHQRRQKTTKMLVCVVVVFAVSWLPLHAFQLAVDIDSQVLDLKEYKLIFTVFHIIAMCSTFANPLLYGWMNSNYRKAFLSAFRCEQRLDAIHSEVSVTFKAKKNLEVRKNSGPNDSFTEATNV
Procedure, shortened: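 Membranes from KAN-Ts cells endogenously expressing Y2 incubated 1 h at rt with 80 pM [^125I]PYY ± test compound in HEPES buffer with NaCl, Ca^2+ and Mg^2+. Bound radioactivity collected by filtration; specific binding defined with […]. IC50 from sigmoidal fit, averaged over 3-8 duplicate experiments.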

Structure (SMILES)	IC50
CCNC(=O)C(c1ccccc1)N1CCN(c2c(F)cc(NC(=O)[C@@H]3CCOC3)cc2F)CC1 (stereo partly drawn) [Example 236, (R)-Tetrahydro-furan-3-carboxylic acid {4-[4-(ethylcarbamoyl-phenyl-methyl)-piperazin-1-yl]-3,5-difluoro-phenyl}-amide]	900 nM
CCC(CC)C(=O)Nc1ccc(N2CCN(C(C(=O)N(CC)CC)c3ccccc3)CC2)cc1C#N (centres unmarked) [Example 237, N-{2-Cyano-4-[4-(diethylcarbamoyl-phenyl-methyl)-piperazin-1-yl]-phenyl}-2-ethyl-butyramide]	1100 nM
CCN(CC)C(=O)C(c1ccccc1)N1CCN(c2ccc(NC(=O)C3CCCC3)cc2OC)CC1 (centres unmarked) [Example 238, Cyclopentanecarboxylic acid {4-[4-(diethylcarbamoyl-phenyl-methyl)-piperazin-1-yl]-3-methoxy-phenyl}-amide]	1300 nM
CCNC(=O)C(c1ccccc1)N1CCN(c2c(F)cc(NC(=O)C3CCCC3)cc2F)CC1 (centres unmarked) [Example 239, Cyclopentanecarboxylic acid {4-[4-(ethylcarbamoyl-phenyl-methyl)-piperazin-1-yl]-3,5-difluoro-phenyl}-amide]	2500 nM
CCN(CC)C(=O)C(c1ccccc1)N1CCN(c2ccc(NC(=O)CC3CC3)cc2F)CC1 (centres unmarked) [Example 241, 2-{4-[4-(2-Cyclopropyl-acetylamino)-2-fluoro-phenyl]-piperazin-1-yl}-N,N-diethyl-2-phenyl-acetamide]	300 nM
CCN(CC)C(=O)C(c1ccccc1)N1CCN(c2ccc(NC(=O)CC3CCCC3)cc2F)CC1 (centres unmarked) [Example 242, 2-{4-[4-(2-Cyclopentyl-acetylamino)-2-fluoro-phenyl]-piperazin-1-yl}-N,N-diethyl-2-phenyl-acetamide]	3000 nM
CCN(CC)C(=O)C(c1ccccc1)N1CCN(c2ccc(NC(=O)C3CCCC3)cc2F)CC1 (centres unmarked) [Example 244, Cyclopentanecarboxylic acid {4-[4-(diethylcarbamoyl-phenyl-methyl)-piperazin-1-yl]-3-fluoro-phenyl}-amide]	80 nM
CCC(CC)NC(=O)c1ccc(N2CCN(C(C(=O)N(CC)CC)c3ccccc3)CC2)c(F)c1 (centres unmarked) [Example 245, 4-[4-(Diethylcarbamoyl-phenyl-methyl)-piperazin-1-yl]-N-(1-ethyl-propyl)-3-fluoro-benzamide]	3000 nM
CCN(CC)C(=O)C(c1ccccc1)N1CCN(c2ccc(CNC(=O)C(C)CC(F)(F)F)cc2F)CC1 (centres unmarked) [Example 246, N-{4-[4-(Diethylcarbamoyl-phenyl-methyl)-piperazin-1-yl]-3-fluoro-benzyl}-4,4,4-trifluoro-2-methyl-butyramide]	2200 nM
CCN(CC)C(=O)C(c1ccccc1)N1CCN(c2ccc(CNC(=O)[C@H]3CCOC3)cc2F)CC1 (stereo partly drawn) [Example 247, (S)-Tetrahydro-furan-3-carboxylic acid 4-[4-(diethylcarbamoyl-phenyl-methyl)-piperazin-1-yl]-3-fluoro-benzylamide]	≥ 10000 nM
CCC(CC)C(=O)Nc1ccc(N2CCN(C(C(=O)N(CC)CC)c3ccc(OC)cc3)CC2)c(F)c1 (centres unmarked) [Example 251, N-(4-{4-[Diethylcarbamoyl-(4-methoxy-phenyl)-methyl]-piperazin-1-yl}-3-fluoro-phenyl)-2-ethyl-butyramide]	18 nM
CCC(CC)C(=O)Nc1ccc(N2CCN(C(C(=O)N(CC)CC)c3ccc(C#N)cc3)CC2)c(F)c1 (centres unmarked) [Example 254, N-(4-{4-[(4-Cyano-phenyl)-diethylcarbamoyl-methyl]-piperazin-1-yl}-3-fluoro-phenyl)-2-ethyl-butyramide]	44 nM
CCOc1ccc(C(C(=O)N(CC)CC)N2CCN(c3ccc(NC(=O)C(CC)CC)cc3F)CC2)cc1 (centres unmarked) [Example 255, N-(4-{4-[Diethylcarbamoyl-(4-ethoxy-phenyl)-methyl]-piperazin-1-yl}-3-fluoro-phenyl)-2-ethyl-butyramide]	44 nM
CCC(CC)C(=O)Nc1ccc(N2CCN(C(C(=O)N(CC)CC)c3ccc(OC(F)(F)F)cc3)CC2)c(F)c1 (centres unmarked) [Example 256, N-(4-{4-[Diethylcarbamoyl-(4-trifluoromethoxy-phenyl)-methyl]-piperazin-1-yl}-3-fluoro-phenyl)-2-ethyl-butyramide]	26 nM

Continued, values first:

IC50	Structure (SMILES)
92 nM	CCN(CC)C(=O)C(c1ccccc1)N1CCN(c2ccc(NC(=O)C3CCCC3)c(F)c2C#N)CC1 (centres unmarked) [Example 224, Cyclopentanecarboxylic acid {3-cyano-4-[4-(diethylcarbamoyl-phenyl-methyl)-piperazin-1-yl]-2-fluoro-phenyl}-amide]
107 nM	CCC(CC)C(=O)Nc1cc(F)c(N2CCN(C(C(=O)N(CC)CC)c3ccccc3)CC2)cc1F (centres unmarked) [Example 225, N-{4-[4-(Diethylcarbamoyl-phenyl-methyl)-piperazin-1-yl]-2,5-difluoro-phenyl}-2-ethyl-butyramide]
95 nM	CCC(CC)C(=O)Nc1cc(F)c(N2CCN(C(C(=O)N(CC)CC)c3ccccc3)CC2)c(F)c1 (centres unmarked) [Example 226, N-{4-[4-(Diethylcarbamoyl-phenyl-methyl)-piperazin-1-yl]-3,5-difluoro-phenyl}-2-ethyl-butyramide]
116 nM	CCC(CC)C(=O)Nc1ccc(N2CCN(C(C(=O)N(CC)CC)c3ccccc3)CC2)c(C#N)c1F (centres unmarked) [Example 227, N-{3-Cyano-4-[4-(diethylcarbamoyl-phenyl-methyl)-piperazin-1-yl]-2-fluoro-phenyl}-2-ethyl-butyramide]
120 nM	CCN(CC)C(=O)C(c1ccccc1)N1CCN(c2ccc(NC(=O)C3CC4CCC3C4)cc2F)CC1 (centres unmarked) [Example 228, Bicyclo[2.2.1]heptane-2-carboxylic acid {4-[4-(diethylcarbamoyl-phenyl-methyl)-piperazin-1-yl]-3-fluoro-phenyl}-amide]
120 nM	CCN(CC)C(=O)C(c1ccccc1)C1CCN(c2ccc(NC(=O)C3CC3)cc2F)CC1 (centres unmarked) [Example 229, Cyclopropanecarboxylic acid {4-[4-(diethylcarbamoyl-phenyl-methyl)-piperidin-1-yl]-3-fluoro-phenyl}-amide]
150 nM	CCN(CC)C(=O)C(c1ccccc1)N1CCN(c2c(F)cc(NC(=O)C3CCCC3)cc2F)CC1 (centres unmarked) [Example 230, Cyclopentanecarboxylic acid {4-[4-(diethylcarbamoyl-phenyl-methyl)-piperazin-1-yl]-3,5-difluoro-phenyl}-amide]
200 nM	CCN(CC)C(=O)C(c1ccccc1)N1CCN(c2ccc(NC(=O)C3CCCC3)cc2C)CC1 (centres unmarked) [Example 231, Cyclopentanecarboxylic acid {4-[4-(diethylcarbamoyl-phenyl-methyl)-piperazin-1-yl]-3-methyl-phenyl}-amide]
210 nM	CCC(CC)C(=O)Nc1ccc(N2CCN(C(C(=O)N(CC)CC)c3ccccc3)CC2)c(C)c1 (centres unmarked) [Example 232, N-{4-[4-(Diethylcarbamoyl-phenyl-methyl)-piperazin-1-yl]-3-methyl-phenyl}-2-ethyl-butyramide]
270 nM	CCC(CC)C(=O)Nc1ccc(N2CCN(C(C(=O)N(CC)CC)c3ccccc3)CC2)c(F)c1F (centres unmarked) [Example 233, N-{4-[4-(Diethylcarbamoyl-phenyl-methyl)-piperazin-1-yl]-2,3-difluoro-phenyl}-2-ethyl-butyramide]
280 nM	CCC(CC)C(=O)Nc1ccc(N2CCC(C(C#N)c3ccccc3)CC2)c(F)c1 (centres unmarked) [Example 234, N-{4-[4-(Cyano-phenyl-methyl)-piperidin-1-yl]-3-fluoro-phenyl}-2-ethyl-butyramide]
18 nM	C#Cc1cc(NC(=O)C(CC)CC)ccc1N1CCN(C(C(=O)N(CC)CC)c2ccccc2)CC1 (centres unmarked) [Example 240, N-{4-[4-(Diethylcarbamoyl-phenyl-methyl)-piperazin-1-yl]-3-ethynyl-phenyl}-2-ethyl-butyramide]
120 nM	CCN(CC)C(=O)C(c1ccccc1)N1CCN(c2ccc(NC(=O)C3CC3C)cc2F)CC1 (centres unmarked) [Example 243, 2-Methyl-cyclopropanecarboxylic acid {4-[4-(diethylcarbamoyl-phenyl-methyl)-piperazin-1-yl]-3-fluoro-phenyl}-amide]
13 nM	CCC(CC)C(=O)Nc1ccc(N2CCC([C@@H](C(=O)N(CC)CC)c3ccccc3)CC2)c(F)c1 [Example 248, (R)-(−)-N-{4-[4-(Diethylcarbamoyl-phenyl-methyl)-piperidin-1-yl]-3-fluoro-phenyl}-2-ethyl-butyramide]
100 nM	CCC(CC)C(=O)Nc1ccc(N2CCC([C@H](C(=O)N(CC)CC)c3ccccc3)CC2)c(F)c1 [Example 249, (S)—(+)-N-{4-[4-(Diethylcarbamoyl-phenyl-methyl)-piperidin-1-yl]-3-fluoro-phenyl}-2-ethyl-butyramide]
9 nM	CCC(CC)C(=O)Nc1ccc(N2CCN(C(C(=O)N(CC)CC)c3ccc(OC)cc3)CC2)c(C#N)c1 (centres unmarked) [Example 250, N-(3-Cyano-4-{4-[diethylcarbamoyl-(4-methoxy-phenyl)-methyl]-piperazin-1-yl}-phenyl)-2-ethyl-butyramide]
104 nM	CCC(CC)C(=O)Nc1ccc(N2CCN(C(C(=O)N(CC)CC)c3ccc(O)cc3)CC2)c(F)c1 (centres unmarked) [Example 252, N-(4-{4-[Diethylcarbamoyl-(4-hydroxy-phenyl)-methyl]-piperazin-1-yl}-3-fluoro-phenyl)-2-ethyl-butyramide]
102 nM	CCC(CC)C(=O)Nc1ccc(N2CCN(C(C(=O)N(CC)CC)c3ccc(Cl)cc3)CC2)c(F)c1 (centres unmarked) [Example 253, N-(4-{4-[(4-Chloro-phenyl)-diethylcarbamoyl-methyl]-piperazin-1-yl}-3-fluoro-phenyl)-2-ethyl-butyramide]

From patent US8183239B2, “Substituted piperazines and piperidines as modulators of the neuropeptide Y2 receptor” (Janssen Pharmaceutica NV, priority 2005, dated 2012)
